Data reported in publication PMC12074795, “Synthesis and biological evaluation of esterified anti-inflammatory drugs with ethylene glycol linkers: cytotoxicity, anti-inflammatory and antioxidant properties” (Royal Society Open Science, 2025).
Where two headings read alike, the source gives them in different places.

Key:
[1] = ABTS radical cation scavenging (decolorization) test; type: biochemical; details: 734 nm, 30 min
Procedure: The in vitro antioxidant ability of the compounds synthesized in this work was evaluated using three different assays, including (i) the ABTS radical cation reduction-decolorization test, which uses the technique of Khan et al. consisting of the reduction of the cation radical by an antioxidant through the discoloration measured by absorption at the wavelength of 734 nm; (ii) interaction with the stable free radical DPPH, based on Bassene’s method, in which the scavenging of DPPH radicals is carried out by a colorimetric method consisting of the reduction of the DPPH radical, determined by its absorption at a wavelength of 517 nm; and (iii) the FRAP test according to the protocol of Path Canada, based on the ability of a substance to reduce Fe^3+ ions to Fe^2+ ions, which, in the presence of 1,10-phenanthroline, form a red-orange complex whose optical density can be measured at 505 nm.
The modified technique by Khan et al. was used to scavenge ABTS^+• cation radicals through a discoloration test. In this test, potassium permanganate (KMnO4) or potassium persulphate (K2S2O8) reacts with ABTS to generate a blue-green ABTS^+• radical. Antioxidants reduce this radical, leading to a measurable colour change at 734 nm, proportional to the antioxidant concentration. The antioxidant capacity is assessed by comparing the intensity reduction of ABTS colour with that of a reference antioxidant, gallic acid. Stock and dilute solutions of synthetic compounds were prepared as detailed in §3.2.5.1. Diluted concentrations were (50, 25, 12.5, 6.25, 3.125, 1.5625 and 0.78125)/Mi in mM. The ABTS solution was obtained by mixing ABTS with K2S2O8, producing an intense blue colour. The ABTS^+• radical was generated by combining equal volumes of a 4.9 mM K2S2O8 solution and a 7 mM ABTS stock solution, stored in the dark at room temperature for 15 h before use. The 7 mM ABTS stock was then diluted 20 times with distilled water. A total of 25 µl of each dilution was added to wells along with 75 µl of 0.175 mM ABTS+ solution. After 30 min of incubation in the dark at room temperature, optical densities were measured at 734 nm. Negative controls contained the ABTS reagent without synthesized compounds, while positive controls used gallic acid at the same final concentrations as the compounds. Compounds were also tested alone to assess fluorescence. The reduction of ABTS results in a blue discoloration, with lower absorbance indicating higher antioxidant activity.
The percentages of scavenging or 50% reduction were calculated using gallic acid as a standard for 100% reduction. The concentration of radical scavengers needed to neutralize 50% of free radicals, referred to as SC50, was determined using GraphPad Prism 8.0.1 software (244).

[2] = system: nitric oxide production by macrophages activated with Saccharomyces cerevisiae; assay: Inhibition of nitric oxide production by stimulated macrophages (Griess); type: cell-based, mouse
Procedure: Second, the anti-inflammatory activity of these compounds at a maximum concentration of 0.22 mM was evaluated by assessing their ability to inhibit the synthesis of NO (figure 2).
Peritoneal macrophages were isolated from four eight-week-old, 25 g Wistar mice by intraperitoneal injection of 0.5 ml of 2% starch solution (inflammatory agent) to stimulate their production. Four days later, the animals were sacrificed, and 5 ml of phosphate buffered saline (PBS) buffer (0.1 M, pH 7.4) was injected into their peritoneal cavity with a syringe. After massage of the peritoneal cavity, the injected buffer was slowly aspirated through a small abdominal incision. The resulting solution containing macrophages was transferred to 15 ml Falcon tubes and kept in ice. The fluid obtained was then centrifuged (1620 g, 4°C and 10 min), and the supernatant was removed. The erythrocytes were removed by osmotic shock. The cells were suspended in 1 ml hypotonic 0.05 M NaCl solution for 1 min. Isotonicity was then restored by adding 1 ml of 0.25 M NaCl. The mixture was centrifuged (1620 g, 4°C and 10 min) and the resulting pellet was suspended in 2 ml of Dulbecco's modified eagle medium (DMEM) (containing 0.2% streptomycin and penicillin, 0.4 g l^−1 bovine serum albumin and 3.7 g l^−1 NaHCO3 in PBS and filtered with 0.22 µm Millipore filters).
In the 96-well plate, 150 µl of a cell suspension (10^4 cells per well) were distributed in different wells. In the test and positive control wells, 50 µl of Saccharomycces cerevisiae (250 µg ml^–1) was added to stimulate the production of pro-inflammatory cytokines. Meanwhile 50 µl of DMEM was added in the negative control wells. The microplate was incubated at 37°C (5% CO2) for 1 h, then 50 µl of solution of compounds or baicalin at different concentrations (0.241 × 10^–3, 2.23 × 10^–3, 22.4 × 10^–3, 220 × 10^–3 and 2410 × 10^–3 mM) were added to the test wells and 50 µl DMEM to the positive (cells activated with Saccharomyces cerevisiae) and negative (inactivated cells) control wells. After 3 h of incubation at 37°C (5% CO2), the cell supernatants were used for NO [41].
A total of 100 µl of the previously obtained cell supernatants were mixed with 100 µl of Griess reagent (1% sulphanylamide, 0.1% naphthyl ethylenediamine dihydrochloride in 2.5% v/v phosphoric acid). The mixture was incubated for 10 min at room temperature and the absorbance is read at 550 nm. The amount of nitrite was measured using the standard sodium […] curve. The percentage inhibition of nitric oxide synthesis was calculated using the following formula:
%inhibition=[(ODcontrol−ODassay/ODcontrol]×100).

[3] = first replicate, read-out: ABTS SC50(1)
[4] = mean of duplicate, read-out: ABTS mean SC50
[5] = second replicate, read-out: ABTS SC50(2)
[6] = Mus musculus, Macrophage, 3 h, peritoneal macrophages activated with Saccharomyces cerevisiae, 3 h incubation, Griess reagent, read-out: IC50 of NO inhibition assay
[7] = Mus musculus, Macrophage, classified according to the IC50 values of table 1, read-out: anti-inflammatory activity (class by IC50 of NO inhibition)
[8] = peritoneal macrophages activated with Saccharomyces cerevisiae, 3 h incubation, Griess reagent, read-out: IC50 of NO inhibition assay

EC50 [1, 3] [µM]	EC50 [1, 4] [µM]	EC50 [1, 5] [µM]	IC50 [2, 6] [µM]	IC50 [2, 7] [µM]	IC50 [2, 8] [µM]	Compound
210	200	200	900	–	–	O=C(OCCOC(=O)c1ccccc1O)c1ccccc1O [Compound 13, Ethane-1,2-diyl bis(2-hydroxybenzoate)]
1670	1700	1730	570	< 1000	–	CC(C)Cc1ccc(C(=O)OCCOC(=O)C(C)c2ccc(CC(C)C)cc2)cc1 (stereo not shown) [Compound 2, 2-((2-(4-isobutylphenyl)propanoyl)oxy)ethyl 4-isobutylbenzoate]
3240	3250	3300	> 1000	–	1360	CCCCCCCCCCCC(=O)OCCOC(=O)c1ccccc1O [DEW4a]
5830	5910	5980	340	–	–	O=C(O)/C=C/c1ccccc1 [Compound 11, cinnamic acid, reference compound]
210	200	200	330	–	–	CC(C)Cc1ccc(C(C)C(=O)O)cc1 (stereo not shown) [Compound 1, ibuprofen, reference compound]
210	210	210	50	–	–	O=C(OCCO)c1ccccc1O [Compound 7, 2-hydroxyethyl 2-hydroxybenzoate]
3360	3470	3600	170	–	–	O=C(/C=C/c1ccccc1)OCCOC(=O)c1ccccc1O [Compound 12, (E)-2-(cinnamoyloxy)ethyl 2-hydroxybenzoate]
3700	3900	4110	–	< 1000	–	CC(C)Cc1ccc(C(C)C(=O)OCCO)cc1 (stereo not shown) [Compound 3, 2-hydroxyethyl 2-(4-isobutylphenyl)propanoate]
2770	2790	2810	≤ 50	< 1000	50	CCCCCCCCCCCC(=O)OCCOC(=O)C(C)c1ccc(CC(C)C)cc1 (stereo not shown) [Compound 5a, 2-((2-(4-isobutylphenyl)propanoyl)oxy)ethyl dodecanoate]
180	180	180	≤ 50	< 1000	50	CC(C)Cc1ccc(C(C)C(=O)OCCOC(=O)C=Cc2ccccc2)cc1 (stereo not shown) [Compound 14, 2-((2-(4-isobutylphenyl)propanoyl)oxy)ethyl cinnamate]
